Columns and labels:
CYP2C19 = type: in vitro ADME, mouse
Procedure: (§1) This example was to detect the CYP450 metabolic enzyme phenotype of the deuterated compound YF027 and its non-deuterated control compound A (using a CYP450 enzyme metabolic phenotype research kit (recombinant enzymatic method/7 enzymes)-mouse liver microsome test).
(§2) • a. The test compound was prepared into a 40 mM stock solution for later use. 2.5 µL of the stock solution was taken and diluted with DMSO to a test compound concentration of 200 µM, and the compound at this concentration was used in subsequent tests. • b. The working solution concentration of the mixed positive substrates, phenacetin and testosterone, was 200 µM.
(§3) 1) The components of the kit were thawed in an ice bath. The mixture was well mixed by vortexing and then placed on ice for later use. 2) In addition to the microsomes, the other components of the incubation systems were mixed according to the ratios and well mixed by pipetting, and the ratios of the incubation systems are shown below; Table 6. Incubation system of positive control group
(§4) The inhibitors were quinidine, naphthoflavone, pilocarpine, sodium diethyldithiocarbamate, ticlopidine, ketoconazole, and sulfaphenazole, which corresponded to the inhibition of CYP450 enzymes CYP2D6, CYP1A2, CYP2A6, CYP2E1, CYP2C19, CYP3A4, and CYP2C9, respectively. Table 9. Incubation system of negative control group
(§5) 3) Except for the negative control group (Table 9), 3.125 µL of liver microsomes was added to each of the above incubation systems to prepare 125 µL of reaction solution. The reaction solutions were well mixed by vortexing, and then placed in a water bath at 37 °C to initiate the reaction. A timer was set. 4) At time points of 0 min and 90 min, 50 µL of reaction solution was taken, and a pre-cooled acetonitrile solution was added to the reaction solution. The mixture was quickly well mixed by vortexing to stop the reaction. 5) Mass spectrometry detection pretreatment of reaction solution
(§6) The reaction solution was cryopreserved in a refrigerator at -80 °C overnight and then centrifuged for mass spectrometry detection.
(§7) The detection values after 90 min of incubation were processed as ratios relative to the 0-min detection values to determine the metabolic rate of the compounds in different experimental groups after 90 min. The metabolic inhibition rate was then calculated using the formula: Inhibition rate (%) = (1 - metabolic rate of sample with inhibitor/metabolic rate of sample without inhibitor) × 100%, as shown in Table 10 below. […] The metabolic inhibition rate reflects the effect on the metabolic elimination of the drug after adding different selective inhibitors. Therefore, when the metabolic inhibition rate of a specific enzyme is ≥ 25%, the contribution of the specific enzyme to the clearance of the drug under study can be inferred to be ≥ 25% based on the results of the in vitro metabolism study.

CYP2A6 = type: in vitro ADME, mouse
Procedure: as §1, §2, §3, §4, §5, §6, §7

CYP2D6 = type: in vitro ADME, mouse
Procedure: as §1, §2, §3, §4, §5, §6, §7

CYP2C9 = type: in vitro ADME, mouse
Procedure: as §1, §2, §3, §4, §5, §6, §7

CYP3A4 = type: in vitro ADME, mouse
Procedure: as §1, §2, §3, §4, §5, §6, §7

[1] = test system: Mycobacterium tuberculosis H37Rv; test: Minimum inhibitory concentration (MIC90) against Mycobacterium tuberculosis H37Rv, Middlebrook 7H9, 96-well plate, 15 days; type: cell-based; details: Mycobacterium tuberculosis H37Rv, 15 days of incubation, 90% inhibition of growth, visual reading
CYP1A2 = molecular target: T1, CYP1A2 (Mus musculus, UniProt P00186); type: in vitro ADME
T1 construct: from tissue; host or cells: mouse liver microsomes (component of a kit)
T1 sequence (P00186 1-513): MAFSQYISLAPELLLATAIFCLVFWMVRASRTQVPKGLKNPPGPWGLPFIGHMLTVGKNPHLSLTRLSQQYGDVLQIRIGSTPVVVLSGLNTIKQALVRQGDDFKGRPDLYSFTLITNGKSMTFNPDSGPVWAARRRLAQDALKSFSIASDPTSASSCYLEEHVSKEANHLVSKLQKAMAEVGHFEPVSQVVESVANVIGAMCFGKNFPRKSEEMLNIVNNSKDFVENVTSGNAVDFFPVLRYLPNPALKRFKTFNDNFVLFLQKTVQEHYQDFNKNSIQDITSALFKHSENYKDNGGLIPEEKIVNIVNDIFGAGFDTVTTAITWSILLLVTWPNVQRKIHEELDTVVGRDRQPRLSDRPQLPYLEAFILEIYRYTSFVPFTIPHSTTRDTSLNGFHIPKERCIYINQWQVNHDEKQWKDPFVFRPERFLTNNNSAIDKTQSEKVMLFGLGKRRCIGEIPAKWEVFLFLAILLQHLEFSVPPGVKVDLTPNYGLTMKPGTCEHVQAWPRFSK
Procedure: as §1, §2, §3, §4, §5, §6
as §7, with “Therefore, when the metabolic inhibition rate of a specific enzyme is ≥ 25%, the contribution of the specific enzyme to the clearance of the drug under study can be inferred to be ≥ 25% based on the results of the in vitro metabolism study.” left out

CYP2E1 = molecular target: T2, CYP2E1 (Mus musculus, UniProt Q05421); type: in vitro ADME
T2 construct: from tissue; host or cells: mouse liver microsomes (component of a kit)
T2 sequence (Q05421 whole entry): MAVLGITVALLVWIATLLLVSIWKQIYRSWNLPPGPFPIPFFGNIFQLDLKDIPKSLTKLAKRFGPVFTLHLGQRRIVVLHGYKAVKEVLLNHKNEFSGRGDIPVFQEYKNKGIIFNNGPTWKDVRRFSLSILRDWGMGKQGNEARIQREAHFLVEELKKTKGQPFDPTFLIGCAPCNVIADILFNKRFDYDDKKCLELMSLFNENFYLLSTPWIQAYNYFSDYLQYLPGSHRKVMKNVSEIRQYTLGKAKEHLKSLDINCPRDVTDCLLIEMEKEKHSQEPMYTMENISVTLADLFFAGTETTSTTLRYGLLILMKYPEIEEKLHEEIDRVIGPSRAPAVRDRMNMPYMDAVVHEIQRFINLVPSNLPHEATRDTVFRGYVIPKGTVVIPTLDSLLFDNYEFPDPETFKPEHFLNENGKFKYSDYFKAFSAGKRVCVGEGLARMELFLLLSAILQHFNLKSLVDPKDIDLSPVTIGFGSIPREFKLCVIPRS
Procedure: as §1, §2, §3, §4, §5, §6
as §7, with “Therefore, when the metabolic inhibition rate of a specific enzyme is ≥ 25%, the contribution of the specific enzyme to the clearance of the drug under study can be inferred to be ≥ 25% based on the results of the in vitro metabolism study.” left out

[2] = test system: Mycobacterium tuberculosis H37Rv; type: in vivo, BALB/c mice

Structure (SMILES): Cl.[2H]C1([2H])CCCC([2H])([2H])N1C([2H])([2H])c1c(O)cc(C(C)(C)C)c2oc3c4ccc(O)cc4oc(=O)c3c12 [YF027, 10-(tert-Butyl)-3,8-dihydroxy-7-((piperidin-1-yl-2,2,6,6-d4)methyl-d2)-6H-benzofuran[3,2-c]chromen-6-one hydrochloride]
- Inhibition rate (CYP2C19): -5.7%
- Inhibition rate (CYP2A6): 14.0%
- Inhibition rate (CYP2D6): -1.3%
- Inhibition rate (CYP2C9): 3.7%
- Inhibition rate (CYP3A4): 16.5%
- MIC90 [1]: ≤3.9 ng/mL
- Inhibition rate (CYP1A2): 0.4%
- Inhibition rate (CYP2E1): -15.1%
- pulmonary Mycobacterium tuberculosis clearance rate ([2]; 100 mg/kg intragastrically, 4 weeks, mice): 99.0%
- reduction of pulmonary bacterial load ([2]; mouse, in vivo): 1.98 log
